Experimental data reported in article PMC10261046, “Mechanism of small molecule inhibition of Plasmodium falciparum myosin A informs antimalarial drug design” (Nature Communications, 2023).

Experiments:
[1] = target: T1, PfMyoA (Plasmodium falciparum myosin A) (Plasmodium falciparum, UniProt Q8IDR3); test: X-ray crystal structure, […] Å; type: binding; design: gene MyoA; with PfELC and PfMTIP light chains
Target sequence in this assay (Q8IDR3 whole entry): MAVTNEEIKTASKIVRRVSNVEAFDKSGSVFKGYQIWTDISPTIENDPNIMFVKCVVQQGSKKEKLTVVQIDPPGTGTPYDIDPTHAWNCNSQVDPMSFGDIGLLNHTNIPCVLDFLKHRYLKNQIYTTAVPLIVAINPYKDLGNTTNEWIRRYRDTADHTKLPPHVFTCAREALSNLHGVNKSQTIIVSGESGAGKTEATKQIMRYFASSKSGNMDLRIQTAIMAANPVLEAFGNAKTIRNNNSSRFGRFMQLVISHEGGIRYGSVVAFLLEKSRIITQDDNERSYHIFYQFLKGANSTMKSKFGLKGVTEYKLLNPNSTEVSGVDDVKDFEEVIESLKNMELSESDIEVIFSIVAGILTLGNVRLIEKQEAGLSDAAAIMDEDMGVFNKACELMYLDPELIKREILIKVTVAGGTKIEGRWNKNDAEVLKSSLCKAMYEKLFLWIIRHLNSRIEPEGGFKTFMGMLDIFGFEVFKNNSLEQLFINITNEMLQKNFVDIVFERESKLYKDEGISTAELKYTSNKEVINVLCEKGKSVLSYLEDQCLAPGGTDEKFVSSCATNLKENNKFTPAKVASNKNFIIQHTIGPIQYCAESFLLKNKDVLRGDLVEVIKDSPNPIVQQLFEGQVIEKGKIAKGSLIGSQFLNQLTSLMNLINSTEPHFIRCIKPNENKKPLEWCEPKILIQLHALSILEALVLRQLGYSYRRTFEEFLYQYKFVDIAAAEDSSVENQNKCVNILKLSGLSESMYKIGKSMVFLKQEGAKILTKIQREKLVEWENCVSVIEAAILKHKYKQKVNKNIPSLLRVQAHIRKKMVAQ
Target sequence in this assay (Q8I4W8 entry or part of it, further chain): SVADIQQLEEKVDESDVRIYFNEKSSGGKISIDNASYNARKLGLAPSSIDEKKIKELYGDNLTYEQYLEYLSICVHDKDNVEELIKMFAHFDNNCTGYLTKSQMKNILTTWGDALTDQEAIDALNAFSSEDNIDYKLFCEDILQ
Target sequence in this assay (Q8IJM4 entry or part of it, further chain): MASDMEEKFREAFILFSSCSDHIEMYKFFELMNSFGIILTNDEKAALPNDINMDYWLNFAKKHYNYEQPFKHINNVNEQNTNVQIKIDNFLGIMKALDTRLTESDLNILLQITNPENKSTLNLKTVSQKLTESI

[2] = target: T1, PfMyoA (Plasmodium falciparum myosin A); test: stopped-flow fluorescence transient kinetics; Kd printed in text is in the presence of […] KNX-002; type: binding; design: gene MyoA; full length PfMyoA heavy chain with light chains; with PfELC and PfMTIP light chains
Target sequence in this assay (Q8IDR3 whole entry): as the sequence (Q8IDR3 whole entry) above
Target sequence in this assay (Q8IJM4 entry or part of it, further chain): as the sequence (Q8IJM4 entry or part of it, further chain) above
Target sequence in this assay (Q8I4W8 entry or part of it, further chain): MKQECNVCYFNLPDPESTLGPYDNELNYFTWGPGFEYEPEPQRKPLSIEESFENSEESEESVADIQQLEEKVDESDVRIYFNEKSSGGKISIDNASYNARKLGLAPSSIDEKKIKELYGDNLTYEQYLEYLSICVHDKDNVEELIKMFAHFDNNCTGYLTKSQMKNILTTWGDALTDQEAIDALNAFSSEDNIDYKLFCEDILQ

PfMyoA triple mutant = target: T2, PfMyoA triple mutant (Plasmodium falciparum, UniProt Q8IDR3, F270Y/F471A/F645H); test: basal ATPase assay (NADH-linked); type: biochemical
T2 construct: gene MyoA; full length PfMyoA heavy chain triple mutant, co-expressed with light chains PfELC and PfMTIP; with PfELC and PfMTIP light chains
T2 sequence (Q8IDR3 whole entry, stated change not applied): as the sequence (Q8IDR3 whole entry) above
T2 sequence (Q8IJM4 whole entry, stated change not applied, further chain): as the sequence (Q8IJM4 entry or part of it, further chain) above

[3] = target: T1, PfMyoA (Plasmodium falciparum myosin A); test: X-ray crystal structure ([…] Å) and affinity measurement for nucleotide-free PfMyoA; also basal and actin-activated ATPase inhibition (IC50 […]); type: binding; design: gene MyoA; with PfELC and PfMTIP light chains
Target sequence in this assay (Q8IDR3 whole entry): as the sequence (Q8IDR3 whole entry) above
Target sequence in this assay (Q8IJM4 entry or part of it, further chain): as the sequence (Q8IJM4 entry or part of it, further chain) above

[4] = target: T1, PfMyoA (Plasmodium falciparum myosin A); test: X-ray crystal structure, […] Å; type: binding; design: gene MyoA; with PfELC and PfMTIP light chains; remark: listed apart in the source
Target sequence in this assay (Q8IDR3 whole entry): as the sequence (Q8IDR3 whole entry) above
Target sequence in this assay (Q8IJM4 entry or part of it, further chain): as the sequence (Q8IJM4 entry or part of it, further chain) above

Nc1ncnc2c1ncn2[C@@H]1O[C@H](COP(=O)(O)OP(=O)(O)O)[C@@H](O)[C@H]1O [ADP]
X-ray crystal structure, 2.03 Å [1]: the substrate was hydrolyzed in PfMyoA/ATPγS/Apo leaving only Mg.ADP in the active site

mant-ADP
Kd [2]: 3.5 µM

COc1ccc(C2(NCc3c[nH]nc3-c3cccs3)CC2)cc1 [KNX-002]
IC50 (PfMyoA triple mutant): 52 µM
Kd [3]: 8.6 µM

Nc1ncnc2c1ncn2[C@@H]1O[C@H](CO[P@](=O)(O)O[P@](=O)(O)O[P@@](=O)(O)S)[C@@H](O)[C@H]1O [ATPγS]
X-ray crystal structure, 2.2 Å [4]: unhydrolyzed Mg.ATPyS occupies the active site of PfMyoA/ATPγS/KNX-002
